Laboratory results reported in PubChem BioAssay (NCI).
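How tested: cells in 96-well plates exposed to compound for 48 hours at five concentrations. Abbreviation: GI50, concentration required for 50% inhibition of growth. TGI marks complete inhibition of growth.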

Legend:
Experiment in all cases: NCI-60 cell line screen, 48 h
MCF7 breast = system: MCF7 breast
BT-549 breast = system: BT-549 breast
M14 melanoma = system: M14 melanoma
HT29 colon = system: HT29 colon
ACHN renal = system: ACHN renal
NCI-H460 lung = system: NCI-H460 lung
SW-620 colon = system: SW-620 colon
NCI-H226 lung = system: NCI-H226 lung
U251 CNS = system: U251 CNS
SK-MEL-28 melanoma = system: SK-MEL-28 melanoma
HOP-62 NSCLC = system: HOP-62 NSCLC
SNB-75 CNS = system: SNB-75 CNS
NCI/ADR-RES ovarian = system: NCI/ADR-RES ovarian
TK-10 renal = system: TK-10 renal
OVCAR-8 ovarian = system: OVCAR-8 ovarian
MALME-3M melanoma = system: MALME-3M melanoma
CAKI-1 renal = system: CAKI-1 renal
RXF 393 renal = system: RXF 393 renal
UACC-62 melanoma = system: UACC-62 melanoma
DU-145 prostate = system: DU-145 prostate
EKVX NSCLC = system: EKVX NSCLC
OVCAR-3 ovarian = system: OVCAR-3 ovarian
OVCAR-5 ovarian = system: OVCAR-5 ovarian
MDA-MB-435 = system: MDA-MB-435
A498 renal = system: A498 renal
A549 NSCLC = system: A549 NSCLC
SR leukemia = system: SR leukemia
T-47D breast = system: T-47D breast
SF-268 CNS = system: SF-268 CNS

O=C(Nc1ccc([As]=[As]c2ccc(NC(=O)c3ccccc3)cc2)cc1)c1ccccc1 (stereo not drawn)
GI50 (MCF7 breast): 208 nM | TGI (MCF7 breast): 547 nM | GI50 (BT-549 breast): 343 nM | TGI (BT-549 breast): 1190 nM | GI50 (M14 melanoma): 1130 nM | TGI (M14 melanoma): 2490 nM | GI50 (HT29 colon): 1420 nM | TGI (HT29 colon): 3440 nM | GI50 (ACHN renal): 1190 nM | TGI (ACHN renal): 2450 nM | GI50 (NCI-H460 lung): 2030 nM | TGI (NCI-H460 lung): 4510 nM | GI50 (SW-620 colon): 227 nM | TGI (SW-620 colon): 740 nM | GI50 (NCI-H226 lung): 662 nM | TGI (NCI-H226 lung): 1640 nM | GI50 (U251 CNS): 255 nM | TGI (U251 CNS): 716 nM | GI50 (SK-MEL-28 melanoma): 214 nM | TGI (SK-MEL-28 melanoma): 531 nM | GI50 (HOP-62 NSCLC): 1240 nM | TGI (HOP-62 NSCLC): 2640 nM | GI50 (SNB-75 CNS): 242 nM | TGI (SNB-75 CNS): 1510 nM | GI50 (NCI/ADR-RES ovarian): 1320 nM | TGI (NCI/ADR-RES ovarian): 2650 nM | GI50 (TK-10 renal): 329 nM | TGI (TK-10 renal): 1130 nM | GI50 (OVCAR-8 ovarian): 333 nM | TGI (OVCAR-8 ovarian): 1220 nM | GI50 (MALME-3M melanoma): 184 nM | TGI (MALME-3M melanoma): 571 nM | GI50 (CAKI-1 renal): 582 nM | TGI (CAKI-1 renal): 1890 nM | GI50 (RXF 393 renal): 192 nM | TGI (RXF 393 renal): 499 nM | GI50 (UACC-62 melanoma): 313 nM | TGI (UACC-62 melanoma): 1280 nM | GI50 (DU-145 prostate): 1440 nM | TGI (DU-145 prostate): 2750 nM | GI50 (EKVX NSCLC): 1180 nM | TGI (EKVX NSCLC): 2640 nM | GI50 (OVCAR-3 ovarian): 285 nM | TGI (OVCAR-3 ovarian): 812 nM | GI50 (OVCAR-5 ovarian): 1170 nM | TGI (OVCAR-5 ovarian): 2530 nM | GI50 (MDA-MB-435): 734 nM | TGI (MDA-MB-435): 2110 nM | GI50 (A498 renal): 1150 nM | TGI (A498 renal): 2360 nM | GI50 (A549 NSCLC): 1840 nM | TGI (A549 NSCLC): 3590 nM | GI50 (SR leukemia): 258 nM | TGI (SR leukemia): 751 nM | GI50 (T-47D breast): 173 nM | TGI (T-47D breast): 493 nM | GI50 (SF-268 CNS): 424 nM | TGI (SF-268 CNS): 1590 nM
